What all share (type): physicochemical
Data set [1] is described as follows: Half life of the compound at 70 uM in MOPS aqueous buffer (250 mM, pH 7.0) containing MeCN (25% v/v) at 24 degC by HPLC analysis. Particulars: pH 7, 70 µM.
A short description of data set [2]: Half life of the compound at 70 uM in MOPS aqueous buffer (300 mM, pH 7.0) containing MeCN (25% v/v) at 24 degC in presence of 700 uM GSH by HPLC analysis. The note with it: pH 7, 70 µM.
Data set [3] can be described thus: Half life of the compound at 100 uM in HEPES buffer (250 mM, pH 7.0) at 24 degC containing no organic solvent.
The nature of data set [4]: Half life of the compound in sodium phosphate buffer (10 mM, pH 7.0) at 37 degC containing methanol (10% v/v).

The structures appear in SMILES notation.

`CC1(C)[S+]([O-])SC(=O)[C@@]1(C)O` (stereo partly drawn): the results for the t1/2 in data set [1] and in data set [2] were 0.883 h and 0.0467 h, respectively.

With `CC1(C)[S+]([O-])SC(=O)[C@]1(C)O` (stereo partly drawn), the t1/2 amounted to 1.87 h in data set [1] and 0.0633 h in data set [2].

By half-life is commonly meant the time needed for the level to fall by half in the phase considered. Low readings indicate rapid decline, high ones slow decline. On to `C/C1=C\[C@@H](O)C(=O)/C=C/C=C\c2csc(n2)[C@@H](C)NC(=O)C[C@@]2(CC1)[S+]([O-])SC(=O)[C@]2(C)O` (stereo partly drawn) [LEINAMYCIN], for which the t1/2 in data set [1] came out at 27 h; in data set [2], 0.173 h. Also, the half-life at 100 µM in data set [3] was 16.1 h. The same molecule had a half-life in data set [4] of 8 h.

The record behind these values is ChEMBL document CHEMBL2046292, “The macrocycle of leinamycin imparts hydrolytic stability to the thiol-sensing 1,2-dithiolan-3-one 1-oxide unit of the natural product” (Bioorg Med Chem Lett, 2012).
